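Tested at 5 concentrations; 48 h exposure; 96-well plates; endpoints linearly interpolated, else capped at highest concentration. TGI: total growth inhibition.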
What was measured:
Experiment in all cases: DTP human tumour cell line panel, 48 h
[1] = test system: PC-3 prostate
[2] = test system: DU-145 prostate
[3] = test system: HS 578T breast
[4] = test system: SNB-19 CNS
[5] = test system: A549 NSCLC
[6] = test system: OVCAR-5 ovarian
[7] = test system: SF-539 CNS
[8] = test system: MDA-MB-435
[9] = test system: SK-MEL-28 melanoma
[10] = test system: NCI-H23 lung
[11] = test system: SNB-75 CNS
[12] = test system: NCI/ADR-RES ovarian
[13] = test system: HOP-62 NSCLC
[14] = test system: OVCAR-3 ovarian
[15] = test system: ACHN renal
[16] = test system: U251 CNS
[17] = test system: CAKI-1 renal
[18] = test system: HCT-15 colon
[19] = test system: COLO 205 colon
[20] = test system: MOLT-4 leukemia
[21] = test system: SF-268 CNS
[22] = test system: IGROV1 ovarian
[23] = test system: NCI-H460 lung
[24] = test system: T-47D breast
[25] = test system: NCI-H522 lung
[26] = test system: LOX IMVI melanoma
[27] = test system: K-562 leukemia
[28] = test system: M14 melanoma
[29] = test system: HCC-2998 colon
[30] = test system: SW-620 colon
[31] = test system: SK-MEL-2 melanoma
[32] = test system: NCI-H226 lung
[33] = test system: HCT-116 colon
[34] = test system: SR leukemia
[35] = test system: RPMI-8226 leukemia
[36] = test system: HOP-92 NSCLC
[37] = test system: EKVX NSCLC
[38] = test system: A498 renal
[39] = test system: BT-549 breast
[40] = test system: MDA-N
[41] = test system: UACC-62 melanoma
[42] = test system: MDA-MB-231 breast
[43] = test system: 786-0 renal
[44] = test system: TK-10 renal
[45] = test system: OVCAR-8 ovarian
[46] = test system: OVCAR-4 ovarian
[47] = test system: HL-60(TB) leukemia
[48] = test system: RXF 393 renal
[49] = test system: MALME-3M melanoma
[50] = test system: SK-MEL-5 melanoma
[51] = test system: SK-OV-3 ovarian
[52] = test system: UO-31 renal
[53] = test system: MCF7 breast
[54] = test system: SN12C renal
[55] = test system: SF-295 CNS
[56] = test system: HT29 colon
[57] = test system: UACC-257 melanoma
[58] = test system: KM12 colon
[59] = test system: CCRF-CEM leukemia

C=CCN1CN(C2CCCCC2)CSC1=S
TGI [1]: 28 µM | TGI [2]: > 26.4 µM | TGI [3]: 18.4 µM | TGI [4]: > 100 µM | TGI [5]: > 65.7 µM | TGI [6]: 27.6 µM | TGI [7]: 8.04 µM | TGI [8]: 12.2 µM | TGI [9]: 38.5 µM | TGI [10]: 40.5 µM | TGI [11]: 25.7 µM | TGI [12]: > 95.5 µM | TGI [13]: > 40.7 µM | TGI [14]: 29.6 µM | TGI [15]: 17.5 µM | TGI [16]: 15.7 µM | TGI [17]: 24 µM | TGI [18]: > 45.7 µM | TGI [19]: 14.3 µM | TGI [20]: > 22.5 µM | TGI [21]: 11.8 µM | TGI [22]: 31.4 µM | TGI [23]: 29.8 µM | TGI [24]: 30.4 µM | TGI [25]: 17.1 µM | TGI [26]: 27 µM | TGI [27]: > 45.7 µM | TGI [28]: 17.8 µM | TGI [29]: 21.1 µM | TGI [30]: 24.3 µM | TGI [31]: 26.9 µM | TGI [32]: 42.8 µM | TGI [33]: 25.1 µM | TGI [34]: 3.15 µM | TGI [35]: > 34.4 µM | TGI [36]: 39.3 µM | TGI [37]: 37.2 µM | TGI [38]: 33.2 µM | TGI [39]: > 80.3 µM | TGI [40]: 21.7 µM | TGI [41]: 22.1 µM | TGI [42]: 43.6 µM | TGI [43]: 18.8 µM | TGI [44]: 27 µM | TGI [45]: 40.8 µM | TGI [46]: 27.4 µM | TGI [47]: 655 nM | TGI [48]: 18.7 µM | TGI [49]: 18.7 µM | TGI [50]: 14.2 µM | TGI [51]: > 44.1 µM | TGI [52]: 24 µM | TGI [53]: 9.11 µM | TGI [54]: 27.1 µM | TGI [55]: > 81.5 µM | TGI [56]: 17 µM | TGI [57]: 30 µM | TGI [58]: 18 µM

CC(C)(Oc1ccc(Cl)cc1)C(=O)N(C(=O)N1CCN(c2ccccc2)CC1)c1ccccc1
TGI [1]: > 100 µM | TGI [2]: > 100 µM | TGI [3]: > 100 µM | TGI [4]: > 100 µM | TGI [5]: > 100 µM | TGI [6]: > 100 µM | TGI [7]: > 100 µM | TGI [8]: > 100 µM | TGI [9]: > 100 µM | TGI [10]: > 100 µM | TGI [11]: > 100 µM | TGI [12]: > 100 µM | TGI [13]: > 100 µM | TGI [14]: > 100 µM | TGI [15]: > 100 µM | TGI [16]: > 100 µM | TGI [17]: > 100 µM | TGI [18]: > 100 µM | TGI [19]: > 100 µM | TGI [20]: > 100 µM | TGI [21]: > 100 µM | TGI [23]: > 100 µM | TGI [24]: > 100 µM | TGI [25]: > 100 µM | TGI [26]: > 100 µM | TGI [27]: > 100 µM | TGI [28]: > 100 µM | TGI [29]: > 100 µM | TGI [30]: > 100 µM | TGI [31]: > 100 µM | TGI [32]: > 100 µM | TGI [33]: > 100 µM | TGI [34]: > 100 µM | TGI [36]: > 100 µM | TGI [37]: > 100 µM | TGI [38]: > 100 µM | TGI [39]: > 100 µM | TGI [40]: > 100 µM | TGI [41]: > 100 µM | TGI [42]: > 100 µM | TGI [43]: > 100 µM | TGI [44]: > 100 µM | TGI [45]: > 100 µM | TGI [46]: > 100 µM | TGI [47]: > 100000 nM | TGI [48]: > 100 µM | TGI [49]: > 100 µM | TGI [59]: > 100 µM | TGI [50]: > 100 µM | TGI [51]: > 100 µM | TGI [52]: > 100 µM | TGI [53]: > 100 µM | TGI [54]: > 100 µM | TGI [55]: > 100 µM | TGI [56]: > 100 µM | TGI [57]: > 100 µM | TGI [58]: > 100 µM
